The values that follow come from ChEMBL document CHEMBL1201862, “PubChem BioAssay data set” (2004).

SMILES strings stand for the structures. Activity calls are given as the source filed them.

The test system of assay [1] is BJ. Description: BJ-TERT fibroblast viability loss – cell-based, RAS-independent, luminescence, dose response (AID 1933). The class given is functional. Particulars: Homo sapiens.
In assay [2] the target is T1, Rac GTPase-activating protein 1 (Homo sapiens, UniProt Q9H0H5).
T1 sequence (Q9H0H5 whole entry): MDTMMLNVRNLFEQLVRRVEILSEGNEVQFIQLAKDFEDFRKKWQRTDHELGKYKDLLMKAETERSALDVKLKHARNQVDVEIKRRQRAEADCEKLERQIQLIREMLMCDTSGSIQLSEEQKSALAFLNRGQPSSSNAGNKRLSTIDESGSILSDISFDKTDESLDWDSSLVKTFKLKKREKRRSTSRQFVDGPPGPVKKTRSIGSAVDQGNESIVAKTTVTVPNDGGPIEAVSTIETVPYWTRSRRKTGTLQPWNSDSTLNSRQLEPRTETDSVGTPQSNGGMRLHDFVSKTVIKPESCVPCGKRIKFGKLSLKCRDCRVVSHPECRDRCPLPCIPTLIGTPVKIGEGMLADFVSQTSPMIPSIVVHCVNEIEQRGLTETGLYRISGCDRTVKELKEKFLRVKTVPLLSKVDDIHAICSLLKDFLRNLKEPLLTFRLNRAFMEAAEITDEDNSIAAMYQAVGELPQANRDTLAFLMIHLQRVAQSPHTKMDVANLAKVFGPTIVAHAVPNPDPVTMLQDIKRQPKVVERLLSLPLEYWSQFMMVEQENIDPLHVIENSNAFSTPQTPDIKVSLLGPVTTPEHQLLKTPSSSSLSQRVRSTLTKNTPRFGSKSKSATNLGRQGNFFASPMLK
Briefly: blockers of MgcRacGAP-driven Rac1 GTP hydrolysis – biochemical, ADP Hunter fluorescence, primary and confirmatory, confirmation (AID 624330). The assay is classed as functional.

Assay [3] addresses T2, Histone-lysine N-methyltransferase NSD2 (Homo sapiens, UniProt O96028).
T2 sequence (O96028 whole entry): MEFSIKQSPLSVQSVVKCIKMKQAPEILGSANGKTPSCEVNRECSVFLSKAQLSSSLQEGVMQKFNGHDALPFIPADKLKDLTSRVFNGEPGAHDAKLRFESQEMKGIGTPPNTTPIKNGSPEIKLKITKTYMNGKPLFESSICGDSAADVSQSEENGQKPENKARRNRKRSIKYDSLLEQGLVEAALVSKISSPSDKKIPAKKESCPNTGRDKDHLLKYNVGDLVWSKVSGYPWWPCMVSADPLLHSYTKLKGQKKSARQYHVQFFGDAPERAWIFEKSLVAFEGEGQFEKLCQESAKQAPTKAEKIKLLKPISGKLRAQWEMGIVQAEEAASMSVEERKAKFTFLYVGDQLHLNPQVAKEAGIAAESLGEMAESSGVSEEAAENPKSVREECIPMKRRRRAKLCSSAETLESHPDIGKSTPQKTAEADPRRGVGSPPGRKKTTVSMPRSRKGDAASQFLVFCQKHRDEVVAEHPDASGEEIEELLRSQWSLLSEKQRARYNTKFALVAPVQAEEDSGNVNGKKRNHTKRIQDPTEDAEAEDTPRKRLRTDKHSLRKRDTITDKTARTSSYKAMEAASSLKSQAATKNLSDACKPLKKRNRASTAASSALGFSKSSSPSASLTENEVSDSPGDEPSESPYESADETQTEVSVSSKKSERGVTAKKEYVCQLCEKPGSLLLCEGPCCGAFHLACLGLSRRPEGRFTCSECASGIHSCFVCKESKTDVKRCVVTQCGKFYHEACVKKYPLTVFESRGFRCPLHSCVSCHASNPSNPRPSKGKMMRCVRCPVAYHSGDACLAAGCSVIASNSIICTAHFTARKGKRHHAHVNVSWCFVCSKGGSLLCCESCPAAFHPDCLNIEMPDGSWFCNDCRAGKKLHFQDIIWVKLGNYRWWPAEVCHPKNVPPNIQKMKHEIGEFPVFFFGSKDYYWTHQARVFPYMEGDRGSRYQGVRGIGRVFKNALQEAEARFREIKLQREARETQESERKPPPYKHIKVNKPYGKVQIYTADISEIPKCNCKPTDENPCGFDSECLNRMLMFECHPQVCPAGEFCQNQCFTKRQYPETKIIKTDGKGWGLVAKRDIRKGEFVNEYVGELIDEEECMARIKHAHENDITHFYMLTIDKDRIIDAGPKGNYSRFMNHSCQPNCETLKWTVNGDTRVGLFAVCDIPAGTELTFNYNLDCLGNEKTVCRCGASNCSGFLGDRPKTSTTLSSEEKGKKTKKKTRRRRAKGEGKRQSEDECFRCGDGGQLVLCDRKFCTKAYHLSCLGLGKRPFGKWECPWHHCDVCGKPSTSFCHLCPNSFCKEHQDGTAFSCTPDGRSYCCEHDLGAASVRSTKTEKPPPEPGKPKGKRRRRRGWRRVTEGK
The class given is biochemical.

Assay [4] can be described thus: NIH-3T3 fibroblast cytotoxicity, dose response, cytotoxicity control, cell-based, fluorescence, Alamar Blue, secondary assay (AID 2327).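 Note: NIH-3T3 mouse fibroblasts cultured with fluconazole at 8 µg/mL.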 The class given is functional. Background: Alamar Blue is a resazurin reagent that responds to reducing activity.
In assay [5] the target is Nonstructural protein 1 (Influenza A virus, UniProt Q194T2). The assay is classed as functional, Influenza A virus (A/California/07/2009(H1N1)).
Assay [6] can be described thus: DRD fibroblast viability loss – cell-based, non-viral oncogenic, luminescence, dose response (AID 1934). The assay is classed as functional. Particulars: Homo sapiens.
The nature of assay [7]: fluconazole-exposed Candida albicans growth modulators – fluorescence, retest, confirmation (AID 2467). The class given is functional, cell-based.
The test system of assay [8] is BJ. Description: BJ-TERT-LT-ST fibroblast viability loss – cell-based, RAS-independent, luminescence, dose response (AID 1935).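 Note: BJ fibroblasts immortalized with TERT plus LT and ST oncogenes.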 The class given is functional. The following applies: Homo sapiens.
Assay [9] has as its system BJ. Briefly: cells. The assay is classed as functional, cell-based. Particulars: Homo sapiens.
Assay [10] is described as follows: viability loss in HeLa cells – cytotoxicity control for MgcRacGAP inhibitor project, dose response (AID 624300). The assay is classed as functional.
Assay [11] in a line: HGIII-sPLA2 enzyme inhibition potency – biochemical, QFRET, IC50, dose response (AID 743457).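 Note: green fluorescence rise as the enzyme cleaves BODIPY PC-A2 in liposomes.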
For assay [12], the target named is Protein Wnt-3a (Mus musculus, UniProt P27467). Description: SAR analysis of small molecule antagonists of Gli-SUFU in a Wnt3a luminescent reporter assay. The class given is functional. A general note: A reporter such as luciferase makes a cellular process visible.
Assay [13] can be described thus: viability loss in MITF-independent A375 cells – cell-based, CellTiter-Glo luminescence, dry powder, set 6, counter-screen for MITF inhibitor project, dose response (AID 624488). The assay is classed as functional. Particulars: A-375. On the technique in general: Cellular ATP, detected with luciferase, serves as a proxy for viable cell number.
Assay [14] can be described thus: inhibitors of TRPM1-promoter reporter in SK-MEL-5 – cell-based, luciferase, dry powder, set 9, MITF inhibitor project, dose response (AID 651588). The assay is classed as functional.
Assay [15] can be described thus: viability loss in MITF-independent A375 cells – cell-based, CellTiter-Glo luminescence, dry powder, set 7, counter-screen for MITF inhibitor project, dose response (AID 624490). The assay is classed as functional. Particulars: A-375.
Assay [16] in a line: MITF Orthogonal Assay: SK-MEL-5 CTG Assay Measured in Cell-Based System Using Plate Reader - 2084-02_Inhibitor_Dose_DryPowder_Activity_Set5. The class given is functional.
The nature of assay [17]: MITF Orthogonal Assay: MALME3 CTG Assay Measured in Cell-Based System Using Plate Reader - 2084-04_Inhibitor_Dose_DryPowder_Activity_Set6. The class given is functional. Particulars: MALME-3.
A short description of assay [18]: viability loss in MITF-independent A375 cells – cell-based, CellTiter-Glo luminescence, dry powder, set 2, counter-screen for MITF inhibitor project, dose response (AID 624489).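 Note: actives are compounds lowering A375 viability meaning general cytotoxicity.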 Particulars: A-375. The assay is classed as functional.
A short description of assay [19]: MITF Measured in Cell-Based System Using Plate Reader - 2084-01_Inhibitor_Dose_DryPowder_Activity_Set6. The class given is functional.
The nature of assay [20]: growth inhibition of MALME3 cells – cell-based, CellTiter-Glo luminescence, dry powder, set 5, orthogonal assay for MITF inhibitor project, dose response (AID 651584). The assay is classed as functional. Particulars: MALME-3.
Assay [21] is described as follows: cytotoxicity in MITF-independent A375 cells – cell-based, CellTiter-Glo luminescence, dry powder, set 4, counter-screen for MITF inhibitor project, dose response (AID 624364).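 Note: A375 melanoma cells are MITF independent so this is a counter screen.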 The class given is functional. The following applies: A-375.
Assay [22] can be described thus: cytotoxicity in MITF-independent A375 cells – cell-based, CellTiter-Glo luminescence, dry powder, set 9, counter-screen for MITF modulator project, dose response (AID 651591). The assay is classed as functional. Particulars: A-375.
Assay [23] can be described thus: cytotoxicity in melanoma parental cells – cell-based, CellTiter-Glo, dry powder, set 6, MITF inhibitor project, dose response (AID 624429). The class given is functional. Particulars: SK-MEL-5.
Assay [24] can be described thus: MITF Measured in Cell-Based System Using Plate Reader - 2084-01_Inhibitor_Dose_DryPowder_Activity_Set7. The assay is classed as functional.
Assay [25] can be described thus: growth inhibition of SK-MEL-5 melanoma cells – cell-based, CellTiter-Glo luminescence, dry powder, set 8, orthogonal assay for MITF inhibitor project, dose response (AID 651586). The assay is classed as functional.
For assay [26], the target named is Fatty acid synthase (Homo sapiens, UniProt P49327). Briefly: inhibition of human FAS-TE enzyme activity – biochemical, endpoint fluorescence intensity, powder samples, SAR follow-up (AID 652164). The class given is functional.
A short description of assay [27]: inhibition of bursicon-driven LGR2 cAMP signaling – cell-based, HEK293, CRE-luciferase reporter, cherry pick, dose response (AID 743342). The class given is functional.
The nature of assay [28]: blockade of melanocortin 4 receptor signaling – cell-based, plate reader, cherry pick, counter-screen for LGR2 antagonist project, dose response (AID 743444).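 Note: transfected HEK 293 cells stimulated with alpha-MSH peptide; potency of inhibitors of the alpha-MSH evoked signal.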 The class given is functional.
Assay [29] in a line: A549 cell cytotoxicity, dose response, cytotoxicity control, plate reader, cherry-pick, antagonist series (AID 743412). The assay is classed as functional, cell-based.
A short description of assay [30]: viability loss in HEK293 cells – cell-based, plate reader, cherry-picked samples, cytotoxicity control, dose response (AID 743446). The class given is functional.
The nature of assay [31]: toxicity toward HepG2 liver cells – cell-based, plate reader, cherry-pick, antagonist series, cytotoxicity control, dose response (AID 743416). The assay is classed as functional.
Assay [32] can be described thus: human cervical cancer cell viability loss – 24 h, plate reader, dry powder, cytotoxicity control, dose response (AID 686928). The class given is functional, cell-based. The following applies: HeLa.

Sequence of Protein Wnt-3a (P27467 whole entry): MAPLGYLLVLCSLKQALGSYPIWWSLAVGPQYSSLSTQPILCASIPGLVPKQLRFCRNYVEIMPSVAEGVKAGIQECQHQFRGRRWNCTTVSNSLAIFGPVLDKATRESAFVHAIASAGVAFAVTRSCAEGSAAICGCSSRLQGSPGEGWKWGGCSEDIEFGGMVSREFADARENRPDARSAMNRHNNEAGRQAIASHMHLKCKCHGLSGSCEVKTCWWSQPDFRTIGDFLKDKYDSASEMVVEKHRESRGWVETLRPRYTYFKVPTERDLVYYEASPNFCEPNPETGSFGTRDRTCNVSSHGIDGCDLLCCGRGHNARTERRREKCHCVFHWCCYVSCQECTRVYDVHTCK
Sequence of Fatty acid synthase (P49327 whole entry): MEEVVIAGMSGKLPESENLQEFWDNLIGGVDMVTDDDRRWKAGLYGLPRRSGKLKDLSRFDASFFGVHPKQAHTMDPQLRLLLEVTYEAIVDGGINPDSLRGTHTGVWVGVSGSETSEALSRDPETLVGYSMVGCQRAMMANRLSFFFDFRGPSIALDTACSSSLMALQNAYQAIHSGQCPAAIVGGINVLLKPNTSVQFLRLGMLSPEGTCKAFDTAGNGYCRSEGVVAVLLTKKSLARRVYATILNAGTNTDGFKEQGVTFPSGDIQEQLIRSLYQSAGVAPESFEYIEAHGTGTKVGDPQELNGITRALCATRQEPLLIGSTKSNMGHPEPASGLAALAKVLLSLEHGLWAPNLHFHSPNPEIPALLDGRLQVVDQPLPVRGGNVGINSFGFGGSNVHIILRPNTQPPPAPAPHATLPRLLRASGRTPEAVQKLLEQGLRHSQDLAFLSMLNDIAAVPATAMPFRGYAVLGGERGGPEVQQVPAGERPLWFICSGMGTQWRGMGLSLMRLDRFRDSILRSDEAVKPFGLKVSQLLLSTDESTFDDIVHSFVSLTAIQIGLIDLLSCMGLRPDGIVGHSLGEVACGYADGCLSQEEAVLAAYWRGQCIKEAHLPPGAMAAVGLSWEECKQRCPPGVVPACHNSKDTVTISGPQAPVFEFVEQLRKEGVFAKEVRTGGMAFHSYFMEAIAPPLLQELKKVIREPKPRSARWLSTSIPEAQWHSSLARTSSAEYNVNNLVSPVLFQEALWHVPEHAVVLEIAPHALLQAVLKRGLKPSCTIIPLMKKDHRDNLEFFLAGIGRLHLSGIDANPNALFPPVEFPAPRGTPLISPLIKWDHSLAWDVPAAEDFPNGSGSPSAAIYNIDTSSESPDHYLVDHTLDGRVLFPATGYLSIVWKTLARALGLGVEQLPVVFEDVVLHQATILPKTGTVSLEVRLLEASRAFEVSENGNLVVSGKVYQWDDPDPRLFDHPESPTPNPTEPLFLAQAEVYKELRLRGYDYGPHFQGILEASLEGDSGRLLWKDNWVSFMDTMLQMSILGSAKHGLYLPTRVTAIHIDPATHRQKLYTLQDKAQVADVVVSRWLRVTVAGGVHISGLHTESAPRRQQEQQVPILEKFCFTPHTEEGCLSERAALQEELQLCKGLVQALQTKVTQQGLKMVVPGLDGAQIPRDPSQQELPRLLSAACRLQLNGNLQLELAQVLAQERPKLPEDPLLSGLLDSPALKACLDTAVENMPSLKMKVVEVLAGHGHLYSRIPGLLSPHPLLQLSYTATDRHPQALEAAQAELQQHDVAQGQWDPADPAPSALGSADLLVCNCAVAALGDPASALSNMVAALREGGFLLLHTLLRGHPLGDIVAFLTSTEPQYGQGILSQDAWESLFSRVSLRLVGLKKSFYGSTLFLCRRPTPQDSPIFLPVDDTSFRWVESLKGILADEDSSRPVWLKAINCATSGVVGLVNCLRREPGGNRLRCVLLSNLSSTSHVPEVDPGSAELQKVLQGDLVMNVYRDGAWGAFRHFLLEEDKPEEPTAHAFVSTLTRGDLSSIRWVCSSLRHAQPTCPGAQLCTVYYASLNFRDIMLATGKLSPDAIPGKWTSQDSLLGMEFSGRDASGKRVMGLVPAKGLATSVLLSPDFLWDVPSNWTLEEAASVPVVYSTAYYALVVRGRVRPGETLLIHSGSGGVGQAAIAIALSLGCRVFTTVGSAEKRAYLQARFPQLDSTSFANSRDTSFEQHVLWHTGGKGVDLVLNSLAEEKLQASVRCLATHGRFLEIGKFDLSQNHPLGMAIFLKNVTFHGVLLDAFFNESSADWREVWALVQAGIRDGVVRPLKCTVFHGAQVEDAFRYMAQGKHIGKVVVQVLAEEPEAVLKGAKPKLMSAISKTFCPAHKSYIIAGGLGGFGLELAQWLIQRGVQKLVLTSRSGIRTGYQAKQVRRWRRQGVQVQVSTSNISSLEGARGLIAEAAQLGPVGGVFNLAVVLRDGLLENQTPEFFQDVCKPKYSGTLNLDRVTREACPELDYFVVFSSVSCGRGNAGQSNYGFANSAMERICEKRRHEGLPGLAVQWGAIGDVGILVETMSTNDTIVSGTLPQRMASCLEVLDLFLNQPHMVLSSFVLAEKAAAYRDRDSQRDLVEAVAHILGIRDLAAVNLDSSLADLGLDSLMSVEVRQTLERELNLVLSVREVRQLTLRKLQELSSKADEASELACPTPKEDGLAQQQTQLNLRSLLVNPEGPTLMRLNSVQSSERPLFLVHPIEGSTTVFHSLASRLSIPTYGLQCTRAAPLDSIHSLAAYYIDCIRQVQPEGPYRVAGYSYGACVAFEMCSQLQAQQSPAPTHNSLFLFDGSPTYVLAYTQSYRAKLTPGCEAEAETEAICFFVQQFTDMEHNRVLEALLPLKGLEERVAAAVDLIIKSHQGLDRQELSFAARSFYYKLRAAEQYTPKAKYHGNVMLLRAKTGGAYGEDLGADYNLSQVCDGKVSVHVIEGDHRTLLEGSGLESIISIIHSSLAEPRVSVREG
Sequence of Nonstructural protein 1 (Q194T2 whole entry): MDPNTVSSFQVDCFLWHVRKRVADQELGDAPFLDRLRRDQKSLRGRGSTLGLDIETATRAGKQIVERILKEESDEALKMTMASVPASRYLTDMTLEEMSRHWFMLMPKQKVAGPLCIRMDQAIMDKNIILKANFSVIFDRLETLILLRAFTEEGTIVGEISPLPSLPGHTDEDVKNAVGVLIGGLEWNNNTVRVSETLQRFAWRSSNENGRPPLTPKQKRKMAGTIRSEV

A word on the EC50: it is the concentration needed to bring the measured effect to its halfway point. A word on the IC50: it is the concentration needed to halve the response being measured. Usually AC50 stands for the concentration at which the activity in the assay is half-maximal. In general, CC50 refers to the concentration at which the toxic effect on the cells reaches its halfway point. As to `CN(C)c1ccc(/C=C/C=C/c2sc3ccccc3[n+]2C)cc1.[O-][Cl+3]([O-])([O-])[O-]`, the EC50 in assay [1] is 2.83 µM (inconclusive); in assay [4] it was > 150 µM (inactive); in [6] it was 4.85 µM (active); in assay [7] it was 0.194 µM (active); in assay [8], 29.2 µM (active); in assay [9], 4.81 µM (active). Further, the half-maximal inhibitory concentration (IC50) in assay [2] was 62.6 µM (active); in [5], 15 µM (active); in [11], 41.6 µM (inactive). The AC50 in assay [3] is 15.8 µM (active). In [10], the CC50 is 64 µM (active).

Consider `O=C(Nc1cc(N2CCCCCC2)ncn1)c1ccccc1`, for which the IC50 in assay [12] was > 21.8 µM (inactive).

Regarding `O=C(NC1=C(Cl)C(=O)c2ccccc2C1=O)c1ccccc1`, the AC50 in assay [13] is 16.5 µM (active); in [14], 1.95 µM (active); in assay [15], 23.1 µM (active); in [16] it was 13.5 µM (active); in [17] it was 7.33 µM (active); in assay [18], 22.8 µM (active). Also, the AC50 was 0.459 µM (active) in [19]; 7.33 µM (active) in assay [20]; 45.9 µM (active) in [21]; 28.7 µM (active) in assay [22]; 9.85 µM (active) in assay [23]; 0.913 µM (active) in assay [24]. Besides, the AC50 in [25] is 3.94 µM (active).

In the case of `O=C(Nc1nc(-c2ccc(S(=O)(=O)N3CCOCC3)cc2)cs1)C1CCCCC1`, the IC50 in assay [26] was > 80 µM (inactive).

Take `C[C@H](CO)N1C[C@H](C)[C@H](CN(C)C(=O)Nc2ccc(F)cc2)OCCCC[C@H](C)Oc2ccc(NC(=O)Nc3ccccc3)cc2C1=O`: the AC50 is 6.77 µM (active) in assay [27]; 44.4 µM (active) in [28]; 37 µM (active) in assay [29]; 40.6 µM (active) in assay [30]; 35.2 µM (active) in assay [31].

In the case of `CC(C)c1ccc2cc3c(NC(=O)c4ccco4)nn(C)c3nc2c1`, the AC50 in assay [32] is 91.9 µM (active).
